From patent US11952362B2, “Compositions and methods for treating epigenetic disease” (The Regents of the University of California, priority 2018, dated 2024)
“Also recorded” adds a separate entry of the source. Like-named read-outs stand apart in the source and are kept apart here. Each block holds one molecule with its values, some of them ahead of it.

Columns and labels:
[1] = test system: 5637 bladder cancer cell line; test: Cell viability assay (CellTiter Glo), 5637; format: cell-based; details: for IC50: 5637 cell growth
Procedure: Pancreatic cancer cell lines (MIA PaCa-2 and CAPAN-2) were purchased from ATCC. MIA PaCa-2 were grown in DMEM and CAPAN-2 in McCoy's 5A (Gibco). Colon cancer cell lines (SW480 and HT-29) were purchased from ATCC. SW480 were grown in Leibovitz's L-15 (ATCC) and HT-29 in McCoy's 5A (Gibco). Lung cancer cell lines (NCI 460 and NCI 1975) were purchased from ATCC and grown in RPMI 1640 (Gibco). PC-3 prostate cancer cell line was purchased from ATCC and grown in F-12K (ATCC). Bladder cancer cell line 5637 was purchased from ATCC and RT-112 was purchased from Sigma-Aldrich and was grown in RPMI 1640 (Gibco). Bladder cancer cell lines, UMUC-9, UMUC-15 and UMUC-7 were purchased from MD Anderson and were grown in EMEM (ATCC). Bladder cancer cell line J82 was purchased from ATCC and was grown in EMEM (ATCC). SW1710 and EJ28 bladder cancer cell lines were purchased from DSMZ and were grown in DMEM (ATCC) and RPMI-1640 (Gibco), respectively. Bladder cancer cell line T24 was purchased from ATCC and grown in McCoy's 5A (Gibco). Bladder cancer cell line BC-3C was purchased from DSMZ and was grown in McCoy's 5A (Gibco). […] IL1B and TNFA mRNA levels were measured by qPCR analysis as described previously (Fang K et al. Am J Pathol, 188(3):586-99, 2018).
(§1) 1.8×10^3 cells/well were plated in quadruplicates in 96-well plate and treated with exogenously added MJK analogues 6 hours after plating. […] Cell growth was assessed 1, 3, 5 or 7 days after plating using the CellTiter Glo Luminescence Cell Viability Assay (Promega) according to manufacturer's protocol. For the experiments where the effect of combinatorial treatment of MJK-004 analogues with chemotherapy was assessed, treatment of cells with gemcitabine (10 nM) or 5-fluouracil (2000 nM) was performed one day after MJK-004 treatment and the cells were further treated with exogenously added MJK analogues 2 days later. Cell growth was assessed 3, 4, 5 or 6 days after plating using the CellTiter Glo Luminescence Cell Viability Assay (Promega) according to manufacturer's protocol. Data are expressed as mean fluorescence (arbitrary units)±S.D. […]

[2] = test system: PC-3 prostate cancer cell line; test: Cell viability assay (CellTiter Glo), PC-3; format: cell-based; details: 120 h; PC-3, 20 uM, day 5; read-out: % growth inhibition
Procedure: (§2) Pancreatic cancer cell lines (MIA PaCa-2 and CAPAN-2) were purchased from ATCC. MIA PaCa-2 were grown in DMEM and CAPAN-2 in McCoy's 5A (Gibco). Colon cancer cell lines (SW480 and HT-29) were purchased from ATCC. SW480 were grown in Leibovitz's L-15 (ATCC) and HT-29 in McCoy's 5A (Gibco). Lung cancer cell lines (NCI 460 and NCI 1975) were purchased from ATCC and grown in RPMI 1640 (Gibco). PC-3 prostate cancer cell line was purchased from ATCC and grown in F-12K (ATCC). Bladder cancer cell line 5637 was purchased from ATCC and RT-112 was purchased from Sigma-Aldrich and was grown in RPMI 1640 (Gibco). […] IL1B and TNFA mRNA levels were measured by qPCR analysis as described previously (Fang K et al. Am J Pathol, 188(3):586-99, 2018).
as §1, with “later.” for “later. Cell growth was assessed 3, 4, 5 or 6 days after plating using the CellTiter Glo Luminescence Cell Viability Assay (Promega) according to manufacturer's protocol. Data are expressed as mean fluorescence (arbitrary units)±S.D.”

[3] = target: T1, HDAC9 (Homo sapiens, UniProt Q9UKV0); test: Fluorogenic HDAC9 activity assay; format: biochemical; details: fluorogenic assay kit, in words
T1 construct: purchased BPS Bioscience 50069
T1 sequence (Q9UKV0 whole entry): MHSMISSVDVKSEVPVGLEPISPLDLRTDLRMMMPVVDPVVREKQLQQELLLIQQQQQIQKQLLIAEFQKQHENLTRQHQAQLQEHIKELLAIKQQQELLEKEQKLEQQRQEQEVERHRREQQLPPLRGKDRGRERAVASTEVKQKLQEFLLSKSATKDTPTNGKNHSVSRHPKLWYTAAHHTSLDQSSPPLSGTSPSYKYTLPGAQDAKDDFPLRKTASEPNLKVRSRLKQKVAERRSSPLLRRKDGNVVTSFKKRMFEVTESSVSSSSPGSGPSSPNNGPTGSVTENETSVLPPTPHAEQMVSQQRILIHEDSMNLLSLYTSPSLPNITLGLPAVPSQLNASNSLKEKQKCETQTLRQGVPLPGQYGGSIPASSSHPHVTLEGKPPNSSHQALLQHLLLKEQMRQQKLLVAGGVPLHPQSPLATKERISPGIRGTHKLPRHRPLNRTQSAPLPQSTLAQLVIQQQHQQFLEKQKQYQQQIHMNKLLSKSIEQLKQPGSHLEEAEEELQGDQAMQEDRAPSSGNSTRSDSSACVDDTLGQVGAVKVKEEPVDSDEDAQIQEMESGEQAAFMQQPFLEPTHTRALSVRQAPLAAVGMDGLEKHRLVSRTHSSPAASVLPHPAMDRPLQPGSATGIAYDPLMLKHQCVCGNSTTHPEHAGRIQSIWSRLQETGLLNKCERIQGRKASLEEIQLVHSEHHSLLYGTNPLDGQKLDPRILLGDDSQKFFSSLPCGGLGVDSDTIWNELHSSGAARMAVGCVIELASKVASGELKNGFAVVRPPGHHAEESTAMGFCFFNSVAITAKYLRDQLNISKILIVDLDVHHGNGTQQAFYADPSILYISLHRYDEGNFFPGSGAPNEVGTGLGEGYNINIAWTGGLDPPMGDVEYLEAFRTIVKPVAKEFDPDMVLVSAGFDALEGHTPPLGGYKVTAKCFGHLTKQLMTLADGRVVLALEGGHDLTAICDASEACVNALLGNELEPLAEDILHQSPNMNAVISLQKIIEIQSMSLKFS
Procedure: To measure the effects of MJK-001, -004, -006 and -008 on HDAC4 & 9 activity fluorogenic HDAC9 (#50069) and HDAC4 (#50064) assay kits (BPS Bioscience) were used. Briefly, these assays consist of two steps; in the first one the HDAC fluorometric substrate containing an acetylated lysine side chain is incubated with purified HDAC9. In the second step, the deacetylation sensitizes the substrate so subsequent treatment with the lysine developer produces a fluorophore that was measured by a fluorescence reader.

[4] = test system: HT-29 colon cancer cell line; test: Cell viability assay (CellTiter Glo), HT-29; format: cell-based; details: Homo sapiens, 120 h; HT-29, 20 uM, day 5; read-out: % growth inhibition
Procedure: as §2
as §1, with “later.” for “later. Cell growth was assessed 3, 4, 5 or 6 days after plating using the CellTiter Glo Luminescence Cell Viability Assay (Promega) according to manufacturer's protocol. Data are expressed as mean fluorescence (arbitrary units)±S.D.”

[5] = test system: SW480 colon cancer cell line; test: Cell viability assay (CellTiter Glo), SW480; format: cell-based; details: Homo sapiens, 120 h; SW480, 20 uM, day 5; read-out: % growth inhibition
Procedure: as §2
as §1, with “later.” for “later. Cell growth was assessed 3, 4, 5 or 6 days after plating using the CellTiter Glo Luminescence Cell Viability Assay (Promega) according to manufacturer's protocol. Data are expressed as mean fluorescence (arbitrary units)±S.D.”

[6] = test system: UMUC9 bladder cancer cells; test: Cell viability assay (CellTiter Glo), UMUC9; format: cell-based; details: for IC50: UM-UC-9
Procedure: Pancreatic cancer cell lines (MIA PaCa-2 and CAPAN-2) were purchased from ATCC. MIA PaCa-2 were grown in DMEM and CAPAN-2 in McCoy's 5A (Gibco). Colon cancer cell lines (SW480 and HT-29) were purchased from ATCC. SW480 were grown in Leibovitz's L-15 (ATCC) and HT-29 in McCoy's 5A (Gibco). Lung cancer cell lines (NCI 460 and NCI 1975) were purchased from ATCC and grown in RPMI 1640 (Gibco). PC-3 prostate cancer cell line was purchased from ATCC and grown in F-12K (ATCC). Bladder cancer cell line 5637 was purchased from ATCC and RT-112 was purchased from Sigma-Aldrich and was grown in RPMI 1640 (Gibco). Bladder cancer cell lines, UMUC-9, UMUC-15 and UMUC-7 were purchased from MD Anderson and were grown in EMEM (ATCC). Bladder cancer cell line J82 was purchased from ATCC and was grown in EMEM (ATCC). SW1710 and EJ28 bladder cancer cell lines were purchased from DSMZ and were grown in DMEM (ATCC) and RPMI-1640 (Gibco), respectively. Bladder cancer cell line T24 was purchased from ATCC and grown in McCoy's 5A (Gibco). Bladder cancer cell line BC-3C was purchased from DSMZ and was grown in McCoy's 5A (Gibco). All media were supplemented with 10% FBS (Gemini Bioproducts) and 1% Antibiotic-Antimycotic (Gibco). In the case of MIA PaCa-2, medium was also supplemented with 2.5% horse serum (Gibco). NCM356 colon epithelial cell lines were growth in M3:10 (INCELL, San Antonio, Tex.). A CMV-driven-HDAC9 vector was used to overexpress HDAC9 levels in NCM356 cells. IL1B and TNFA mRNA levels were measured by qPCR analysis as described previously (Fang K et al. Am J Pathol, 188(3):586-99, 2018).
1.8×10^3 cells/well were plated in quadruplicates in 96-well plate and treated with exogenously added MJK analogues 6 hours after plating. For the experiments performed to calculate the IC50s of HDAC9 analogues, a secondary treatment of exogenously added MJK analogues was performed 2 days later. Cell growth was assessed 1, 3, 5 or 7 days after plating using the CellTiter Glo Luminescence Cell Viability Assay (Promega) according to manufacturer's protocol. For the experiments where the effect of combinatorial treatment of MJK-004 analogues with chemotherapy was assessed, treatment of cells with gemcitabine (10 nM) or 5-fluouracil (2000 nM) was performed one day after MJK-004 treatment and the cells were further treated with exogenously added MJK analogues 2 days later. Cell growth was assessed 3, 4, 5 or 6 days after plating using the CellTiter Glo Luminescence Cell Viability Assay (Promega) according to manufacturer's protocol. Data are expressed as mean […] (arbitrary units)±S.D.
Cell Viability Assays were employed to determine the concentration of MJK analogues where the response is reduced by half. For each treatment of cancer cells, 1, 2, 5, 10 and 20 μM of MJK analogues were applied. GraphPad Prism 7 software was used to fit dose response curves. Relative Luciferase Activity Units were plotted against the log values of the doses used and the nonlinear regression model was used for data analysis.

[7] = test system: NCI-1975 lung cancer cell line; test: Cell viability assay (CellTiter Glo), NCI-1975; format: cell-based; details: 120 h; NCI-1975, 20 uM, day 5; read-out: % growth inhibition
Procedure: as §2
as §1, with “later.” for “later. Cell growth was assessed 3, 4, 5 or 6 days after plating using the CellTiter Glo Luminescence Cell Viability Assay (Promega) according to manufacturer's protocol. Data are expressed as mean fluorescence (arbitrary units)±S.D.”

[8] = test system: RT-112 bladder cancer cells; test: Anchorage-independent cell growth assay (colonies in soft agar); format: cell-based; details: RT-112, treated at 1xIC50 or 2xIC50 for 3 days
Procedure: Quadruplicate samples of 1×10^6 bladder cancer cells, that were previously untreated or treated with the MJK-004 at the concentration corresponding to the 1×IC50 or 2×IC50 for each cell line (as assessed at the third day after cells' plating and treatment) for 3 days, were assayed in 96-well plates for colony formation using the CytoSelect Cell Transformation kit (Cell Biolabs, Inc) according to manufacturer's protocol. Seven days later, live cells were detected using a colorimetric format. The MTT dye was added directly to the cultured cells followed by a detergent solution. Quantitation was performed using a standard microplate reader at 540-570 nm. Data were expressed as the mean±S.D.

[9] = test system: BC3C bladder cancer cell line; test: Cell viability assay (CellTiter Glo), BC3C; format: cell-based; details: BC3C cell growth
Procedure: as §2
as §1, with “later.” for “later. Cell growth was assessed 3, 4, 5 or 6 days after plating using the CellTiter Glo Luminescence Cell Viability Assay (Promega) according to manufacturer's protocol. Data are expressed as mean fluorescence (arbitrary units)±S.D.”

[10] = test system: EJ28 bladder cancer cell line; test: Cell viability assay (CellTiter Glo), EJ28; format: cell-based; details: Homo sapiens, EJ-28; EJ28 cell growth
Procedure: as §2
as §1, with “later.” for “later. Cell growth was assessed 3, 4, 5 or 6 days after plating using the CellTiter Glo Luminescence Cell Viability Assay (Promega) according to manufacturer's protocol. Data are expressed as mean fluorescence (arbitrary units)±S.D.”

[11] = Water solubility of MJK compounds; format: physicochemical
Text: Solubility of MJK compounds: The development of an oral formulation for patients with auto-immune diseases, including Crohn's Disease, is preferential and less expensive, avoiding the need of hospitalization in comparison to the intracolonic (enema) administration. Thus, the water solubility and physical properties of the MJK compounds were examined. […] MJK-008 is the highest soluble MJK compound.

[12] = test system: IL1B and TNFA mRNA levels in HDAC9-overexpressing NCM356 cells; test: IL1B and TNFA mRNA (qPCR) in HDAC9-overexpressing NCM356 colonocytes; format: cell-based

- HDAC9 activity / specificity [3]: partially blocks
- IC50 ([6]; UMUC9 cell growth): 7.1 µM
SMILES: Cn1c(/C=C/C(=O)NO)ccc1/C=C/C(=O)c1cccc(F)c1 [MJK001, (E)-3-(5-((E)-3-(3-Fluorophenyl)-3-oxoprop-1-en-1-yl)-1-methyl-1H-pyrrol-2-yl)-N-hydro-xyacrylamide]
- inhibition at 20 µM ([1]; 120 h, 5637, 20 uM, day 5, read-out: % growth inhibition): 42.1%
- inhibition at 20 µM [2]: 26.8%
- inhibition at 20 µM [4]: 19.7%
- inhibition at 20 µM [5]: 58.4%
- inhibition at 20 µM [7]: 11.8%

- IC50 [1]: 7.58 µM
- HDAC9 activity / specificity [3]: very low activity against HDAC9
- IC50 ([6]; UMUC9 cell growth): 3.97 µM
- IC50 [9]: 5.85 µM
- IC50 [10]: 6.62 µM
SMILES: Cn1c(/C=C/C(=O)NO)ccc1/C=C/C(=O)c1cccs1 [MJK004, (E)-N-hydroxy-3-(1-methyl-5-((E)-3-oxo-3-(thiophen-2-yl)prop-1-en-1-yl)-1H-pyrrol-2-yl)acrylamide]
- ability to form colonies in soft agar [8]: reduced significantly
- cell growth, monotherapy ([6]; UMUC9, days 4 & 5): suppressed bladder cancer growth in both cell lines as a monotherapy
- cell growth, combination with gemcitabine ([6]; UMUC9, gemcitabine 10 nM, days 4 & 5): increased gemcitabine's efficacy

- IC50 [1]: 1740 µM
- IC50 ([6]; UMUC9 cell growth): 19.8 µM
- Solubility score [11]: worst solubility
- IC50 [9]: 36.4 µM
- IC50 [10]: 352 µM
SMILES: Cn1c(/C=C/C(=O)NO)ccc1/C=C/C(=O)c1cccnc1 [MJK006, (E)-N-hydroxy-3-(1-methyl-5-((E)-3-oxo-3-(pyridin-3-yl)prop-1-en-1-yl)-1H-pyrrol-2-yl)acrylamide]
- HDAC9 activity / specificity [3]: high specificity for the HDAC9 isoform; also recorded: significantly increased specificity of targeting the HDAC9 isoform

- IC50 (uM) values ([6]; UMUC9 cell growth): ns
- Solubility score ([11]; hydrochloride): highest solubility
SMILES: Cl.Cn1c(/C=C/C(=O)NO)ccc1/C=C/C(=O)c1cccnc1 [MJK008, (E)-N-Hydroxy-3-(1-methyl-5-((E)-3-oxo-3-(pyridin-3-yl)prop-1-en-1-yl)-1H-pyrrol-2-yl)ac-rylamide hydrochloride]
- IL1B and TNFA mRNA levels (inflammatory response) [12]: reduced substantially the inflammatory response
- HDAC9 activity / specificity ([3]; hydrochloride): high specificity for the HDAC9 isoform; also recorded: significantly increased specificity of targeting the HDAC9 isoform
